From patent publication US12673946B2, “Pyrimidin-4(3H)-one derivatives as TRPV4 antagonists” (RaQualia Pharma Inc., priority 2020, dated 2026) come the findings set out here.

The target in the assay is T1, human TRPV4 (Homo sapiens, UniProt Q9HBA0).
T1 construct: host or cells: tetracycline-inducible Flp-In T-REx 293 cells
Nature of the assay: Hypotonicity-induced Ca2+ influx (Fluo-4, FDSS). Format: cell-based. A digest of the protocol:
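Flp-In T-REx 293 cells with tetracycline-induced human TRPV4, loaded with Fluo-4 for 60 min at 25 °C. Compound added 5 min before hypotonic mannitol/CaCl2 solution. Ca2+ signal recorded for 4.5 min on FDSS.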

[1] abbreviates: Flp-In T-REx 293 cells expressing human TRPV4, examples listed under heading 'Human IC50<50 nM'.
Setting [2] is: Flp-In T-REx 293 cells stably expressing human TRPV4, compounds listed by potency bin (<10 nM Tables 96-1/96-2, <3 nM Table 97).

pIC50: −log10 of the molar value.

T1 sequence (Q9HBA0 whole entry): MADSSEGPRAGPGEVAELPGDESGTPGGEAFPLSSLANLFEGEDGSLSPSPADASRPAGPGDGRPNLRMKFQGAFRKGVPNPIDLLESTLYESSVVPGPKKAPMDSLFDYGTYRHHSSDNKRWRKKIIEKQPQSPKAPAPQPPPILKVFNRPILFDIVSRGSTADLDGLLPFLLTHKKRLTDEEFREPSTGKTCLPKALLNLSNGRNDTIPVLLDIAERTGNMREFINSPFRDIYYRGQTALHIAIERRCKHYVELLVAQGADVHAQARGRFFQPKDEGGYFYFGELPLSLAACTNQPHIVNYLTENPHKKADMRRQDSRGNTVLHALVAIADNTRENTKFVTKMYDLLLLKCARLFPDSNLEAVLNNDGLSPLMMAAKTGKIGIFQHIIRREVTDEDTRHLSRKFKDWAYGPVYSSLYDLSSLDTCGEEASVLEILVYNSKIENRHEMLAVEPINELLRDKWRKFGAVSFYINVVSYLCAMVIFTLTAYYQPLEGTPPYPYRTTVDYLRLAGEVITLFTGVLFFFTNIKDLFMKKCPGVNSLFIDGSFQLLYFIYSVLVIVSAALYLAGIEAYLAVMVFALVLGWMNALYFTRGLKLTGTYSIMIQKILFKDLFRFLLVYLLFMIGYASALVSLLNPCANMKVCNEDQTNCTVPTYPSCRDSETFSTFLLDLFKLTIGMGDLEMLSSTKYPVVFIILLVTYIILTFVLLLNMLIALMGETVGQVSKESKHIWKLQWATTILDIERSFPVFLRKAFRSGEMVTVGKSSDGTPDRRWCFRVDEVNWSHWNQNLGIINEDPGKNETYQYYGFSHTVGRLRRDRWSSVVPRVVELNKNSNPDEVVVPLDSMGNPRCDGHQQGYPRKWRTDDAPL

Regarding `O=C([C@H](O)c1cccc(-c2coc3ccccc23)c1)N1CCCc2nc(C3(c4ccccc4)CC3)[nH]c(=O)c2C1` [49-46], the pIC50 runs as follows: under setting [1], above 7.30; under setting [2], above 8.52.

As for `O=C([C@H](O)c1cccc(-c2cccc(C3CC3)c2)c1)N1CCCc2nc(C3(c4ccccc4)CC3)[nH]c(=O)c2C1` [49-47], the pIC50 is above 7.30 under setting [1] and above 8.00 under setting [2].

As for `Cc1ccc(-c2cccc([C@@H](O)C(=O)N3CCCc4nc(C5(c6ccccc6)CC5)[nH]c(=O)c4C3)c2)cc1C` [49-48], the pIC50 by setting is: under setting [1], above 7.30; under setting [2], above 8.00.

In the case of `Cc1cc(C)cc(-c2cccc([C@@H](O)C(=O)N3CCCc4nc(C5(c6ccccc6)CC5)[nH]c(=O)c4C3)c2)c1` [49-49], the pIC50 was above 7.30 under setting [1] and above 8.00 under setting [2].

With `CC(C)c1cccc(-c2cccc([C@@H](O)C(=O)N3CCCc4nc(C5(c6ccccc6)CC5)[nH]c(=O)c4C3)c2)c1` [49-50], the pIC50 was above 7.30 under setting [1] and above 8.52 under setting [2].

Consider `Cc1cc(-c2cccc([C@@H](O)C(=O)N3CCCc4nc(C5(c6ccccc6)CC5)[nH]c(=O)c4C3)c2)ccc1Cl` [49-51], for which the pIC50 runs as follows: under setting [1], above 7.30; under setting [2], above 8.52.

With `O=C([C@H](O)c1cccc(-c2cc(C(F)(F)F)ccc2Cl)c1)N1CCCc2nc(C3(c4ccccc4)CC3)[nH]c(=O)c2C1` [49-52], the negative-log IC50 (pIC50) runs as follows: under setting [1], above 7.30; under setting [2], above 8.52.

In the case of `O=C([C@H](O)c1cccc(-c2cccc(SC(F)(F)F)c2)c1)N1CCCc2nc(C3(c4ccccc4)CC3)[nH]c(=O)c2C1` [49-53], the pIC50 is above 7.30 under setting [1] and above 8.00 under setting [2].

Take `O=C([C@H](O)c1cccc(-c2cccc(C(F)(F)F)c2)c1)N1CCCc2c(nc(C3(c4ccccc4)CC3)[nH]c2=O)C1` [49-54]: the pIC50 under setting [1] was above 7.30 and the pIC50 under setting [2] is above 8.00.

Regarding `CC(C)(C)c1cccc(-c2cccc([C@@H](O)C(=O)N3CCCc4c(nc(C5(c6ccccc6)CC5)[nH]c4=O)C3)c2)c1` [49-55], the negative-log IC50 (pIC50) under setting [1] is above 7.30 and the pIC50 under setting [2] is above 8.00.

With `O=C([C@H](O)c1cccc(-c2cccc(OC(F)(F)F)c2)c1)N1CCCc2c(nc(C3(c4ccccc4)CC3)[nH]c2=O)C1` [49-56], the pIC50 under setting [1] was above 7.30 and the pIC50 under setting [2] was above 8.00.

Consider `CC(C)c1cccc(-c2cccc([C@@H](O)C(=O)N3CCCc4c(nc(C5(c6ccccc6)CC5)[nH]c4=O)C3)c2)c1` [49-57], for which the pIC50 under setting [1] is above 7.30.

Take `O=C([C@H](O)c1cccc(-c2csc3ccccc23)c1)N1CCCc2nc(C3(c4cccc(Cl)c4)CC3)[nH]c(=O)c2C1` [50-1]: the negative logarithm of the IC50 (pIC50) is above 7.30 under setting [1] and above 8.00 under setting [2].

Compound `O=C([C@H](O)c1cccc(-c2cc3ccccc3s2)c1)N1CCCc2nc(C3(c4cccc(Cl)c4)CC3)[nH]c(=O)c2C1` [50-2] showed a pIC50 under setting [1] above 7.30 and a negative logarithm of the IC50 (pIC50) under setting [2] above 8.00.

Take `O=C([C@H](O)c1cccc(-c2cccc(OC(F)(F)F)c2)c1)N1CCCc2nc(C3(c4cccc(Cl)c4)CC3)[nH]c(=O)c2C1` [50-3]: the pIC50 reads like this: under setting [1], above 7.30; under setting [2], above 8.00.

With `O=C([C@H](O)c1cccc(-c2cccc(C(F)(F)F)c2)c1)N1CCCc2nc(C3(c4cccc(Cl)c4)CC3)[nH]c(=O)c2C1` [50-4], the negative logarithm of the IC50 (pIC50) under setting [1] is above 7.30 and the negative logarithm of the IC50 (pIC50) under setting [2] was above 8.52.

For the compound `O=C([C@H](O)c1cccc(-c2ccc(Cl)cc2)c1)N1CCCc2nc(C3(c4cccc(Cl)c4)CC3)[nH]c(=O)c2C1` [50-5], the pIC50 reads like this: under setting [1], above 7.30; under setting [2], above 8.52.

For `O=C([C@H](O)c1cccc(-c2cccc(F)c2)c1)N1CCCc2nc(C3(c4cccc(Cl)c4)CC3)[nH]c(=O)c2C1` [50-6], the pIC50 under setting [1] was above 7.30 and the pIC50 under setting [2] is above 8.52.

Regarding `CC(C)(C)c1cccc(-c2cccc([C@@H](O)C(=O)N3CCCc4nc(C5(c6cccc(Cl)c6)CC5)[nH]c(=O)c4C3)c2)c1` [50-7], the negative-log IC50 (pIC50) under setting [1] is above 7.30 and the negative logarithm of the IC50 (pIC50) under setting [2] is above 8.00.

Turning to `O=C([C@H](O)c1cccc(-c2coc3ccccc23)c1)N1CCCc2nc(C3(c4cccc(Cl)c4)CC3)[nH]c(=O)c2C1` [50-8], the pIC50 reads like this: under setting [1], above 7.30; under setting [2], above 8.52.
